Source: publication PMC3653934, “Identification of Adiponectin Receptor Agonist Utilizing a Fluorescence Polarization Based High Throughput Assay” (PLoS ONE, 2013)
Where two headings read alike, the source gives them in different places.

Assays:
AdipoR1 = target: T1, AdipoR1 (Homo sapiens, UniProt Q96A54); test: Competitive FP assay, displacement of probe 1 from AdipoR1; type: binding; details: 2 µM receptor, 100 nM probe 1, 30 min, 25°C
T1 construct: The cDNAs encoding full-length of AdipoR1 or AdipoR2 were then sub-cloned into the mammalian expression vector pBEX and pcDNA3.1–Myc-His(+); His (C); Myc (C); made in house; host or cells: CHO cells
T1 sequence (Q96A54 1-375): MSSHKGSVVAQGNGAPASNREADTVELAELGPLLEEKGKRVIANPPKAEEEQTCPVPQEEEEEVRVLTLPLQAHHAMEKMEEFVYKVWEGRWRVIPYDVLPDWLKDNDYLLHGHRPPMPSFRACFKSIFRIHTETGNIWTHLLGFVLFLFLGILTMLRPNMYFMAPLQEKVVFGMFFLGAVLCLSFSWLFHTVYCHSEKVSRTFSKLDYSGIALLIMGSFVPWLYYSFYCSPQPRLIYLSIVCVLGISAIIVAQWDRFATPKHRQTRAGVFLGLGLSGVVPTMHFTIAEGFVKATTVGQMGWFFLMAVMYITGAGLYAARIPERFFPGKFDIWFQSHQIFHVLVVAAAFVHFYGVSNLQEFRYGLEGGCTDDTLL
Description: Unlabeled short peptide 3 was titrated against the FITC-labeled peptide and adiponectin receptor mixture. Plates were incubated at room temperature for up to 3 hours or 30 min at different temperatures. FP values were taken and IC50 values were calculated.
Master mixtures containing fluorescein-labeled probe 1 and adiponectin receptor (AdipoR1 or AdiopR2, 2 µM and probe 1 at 100 nM) in a reaction volume of 19 µl were prepared and loaded to plates. The library compounds (10 µM –0.078 µM, half dilutions) were prepared separately and transferred into the assay plates. The first and last columns of each plate were used as positive and negative control wells. Wells containing the drug only were used as controls to detect auto-fluorescence of the compounds in the total fluorescence assay. After subtraction of the background signal, data was processed and the IC50 values were determined by non-linear least square fitting using SigmaPlot 11.0.
Given that the present study is a screening study, peptide 3 was chosen as the positive control for cost-efficiency purposes.
To optimize the FP assay properly, it was necessary to assess the stability of the FP assay. The conditions for the FP assay were established by testing various parameters including incubation temperature, time, TF values, ΔmP values, and DMSO tolerance. […] In summary, the competitive FP binding assay conditions ideal for identifying adiponectin receptor agonists are: i) 2 µM adiponectin receptor, ii) 100 nM probe 1, iii) 5% final DMSO concentration (v/v), and iv) incubation for 30 min at 25°C before reading the plate.
A pilot screen against the natural product library of 10,000 compounds described above was performed at screening concentrations of 10 µM to 0.078 µM (half serial dilutions) in 5% DMSO (v/v). Controls present in each assay plate consisted of 5% DMSO (negative control) or peptide 3 (positive control).
We screened a library of 10,000 natural compounds for adiponectin agonists. […] 46 compounds that could generate IC50 curves were identified as initial hits.

[1] = tested on: AMPK phosphorylation (AdipoR1 signaling) in MDA-MB-231 cells; test: Western blot of AMPK phosphorylation in MDA-MB-231 cells; type: cell-based, human; details: MDA-MB-231 cells treated at IC50 concentration for 6 h
Description: (§1) Cells were grown to 80% confluence, harvested and aliquoted into 100 mm dishes in serum free media. Cells were allowed to attach overnight and then the serum free media was removed and then cells were washed in PBS twice. Different doses of compounds were prepared in the normal media and added to different dishes for an additional 6 h. Cells were washed 3 times with ice-cold PBS and cell lysates were prepared by scraping cells into lysis buffer A (RIPA buffer, 2 mM dithiothreitol […], 1×Halt protease inhibitor cocktail (Thermo scientific), and 1×Halt phosphatase inhibitor cocktail (Thermo scientific)). The cells were allowed to swell on ice (5 min), after which the homogenate was centrifuged. The supernatants were transferred to fresh tubes and protein concentrations were determined using the Bio-Rad protein assay (Bio-Rad Laboratories, Inc.) per manufacturer’s instructions. Aliquots of the cell lysates were stored at −80°C.
(§2) Equal amounts of total protein (50 µg) were subjected to electrophoresis (10% tris-HCl, 1.0 mm gels) and transferred to nitrocellulose membranes. Membranes were blocked in TBS containing 0.05% Tween 20 (TBST) and 5% nonfat milk or 5% BSA for 1 hour at room temperature. Appropriately diluted primary antibodies were incubated in TBST/5% nonfat milk or TBST/5% BSA for 2 h at room temperature or overnight at 4 °C. Membranes were washed in TBST three times for 15 min each. Appropriately diluted secondary antibodies were incubated in superblock blocking buffers (Thermo Scientific) for 1 h at room temperature. Membranes were washed in TBST three times for 15 min. Proteins were detected by Amersham™ ECL plus western blotting detection system (GE healthcare). The following antibodies were used: anti-AdipoR1 M18, anti-AdipoR2 C12 (Santa Cruz Biotechnology, Santa Cruz, CA), anti-p-AMPKα(T172), anti-AMPKα, and anti-β-actin (Cell Signaling, Danvers, MA).
(§3) It is well established that adiponectin activates AMPK and p38 MAPK through AdipoR1 or PPARα through AdipoR2 to mediate its downstream signaling cascades, [9], [12], [14]. […] The levels of phosphorylation of AMPK and phosphorylation of PPARα were examined and the relative expression levels of the phospho-protein to the total expression of protein levels were quantified using ImageJ software (NIH) ( Fig. 3 ).
(§4) Figure 3 Effects of hit compounds on adiponectin receptor signaling pathways. […] A total 50 µg of cell lysate was loaded to each lane. Western blot was performed follow the protocol in materials and methods section.

[2] = tested on: PPARα phosphorylation (AdipoR2 signaling) in MCF-7 cells; test: Western blot of PPARα phosphorylation in MCF-7 cells; type: cell-based, human; details: MCF-7 cells treated at IC50 concentration for 6 h
Description: as §1, §2, §3, §4

[3] = primary screen, read-out: IC50 vs AdipoR1 (µM) Primary screen
[4] = validation, read-out: IC50 vs AdipoR1 (µM) Validated

Row | IC50 (AdipoR1; [3]) [µM] | IC50 (AdipoR1; [4]) [µM] | SMILES | Effect on AMPK phosphorylation [1] | Effect on PPARα phosphorylation level [2] | Effect on PPARα phosphorylation level ([2]; listed as gramine)
1 | 0.9 | 0.8 ± 0.2 | COc1cc(C[C@H]2COC(=O)[C@@H]2Cc2ccc(O)c(OC)c2)ccc1O [Compound 3, Matairesinol] | elevated | inhibited | 
2 | > 5 | > 5 | COc1cc2c(c(OC)c1OC)-c1c(cc(OC)c(OC)c1OC)C[C@H](C)[C@H](C)C2 [Compound 4, Deoxyschizandrin] | decreased | increased | 

The remaining lines, values behind:

Row | SMILES | IC50 (AdipoR1; [3]) [µM] | IC50 (AdipoR1; [4]) [µM] | Effect on AMPK phosphorylation [1] | Effect on PPARα phosphorylation level [2] | Effect on PPARα phosphorylation level ([2]; listed as gramine)
3 | COc1ccc(C[C@H]2COC(=O)[C@@H]2Cc2ccc(O[C@@H]3O[C@H](CO)[C@@H](O)[C@H](O)[C@H]3O)c(OC)c2)cc1OC [Compound 1, Arctiin] | 1.2 | 1.3 ± 0.2 | elevated | inhibited | 
4 | C=C1C(=O)O[C@H]2[C@H]1CC/C(C)=C/CC[C@@]1(C)O[C@@H]21 [Compound 7, Parthenolide] | > 5 | > 5 | no effect | increased | 
5 | CN(C)Cc1c[nH]c2ccccc12 [Compound 9, Gramine] | 4.5 | 4.2 ± 0.5 | elevated | inhibited | decreased
